Experimental data taken from patent US20130045299A1, “Natural Mold Inhibitor and Methods of Using Same” (priority 2011, published 2013).

Legend:
[1] = test system: mold; experiment: Mold-free shelf life of packaged bread, inspected daily (days to mold)
Description: Bread is prepared using the no-time, straight dough method by mixing the following ingredients in a Hobart A200 mixer with a McDuffy attachment for a total of 8 minutes until full gluten development is obtained: flour (100%), water (68%), granulated sugar (7%), shortening (4%), fresh yeast (2.5%), 30% acetic acid vinegar or 300 grain vinegar (0%, 2%, 1% or 0.5%), and citric acid (0% or 0.1%). Mixed dough is rested for 10 minutes on bench then scaled into two 520 gram dough pieces and rounded by hand. Rounded dough is rested 10 minutes then is sheeted and molded into logs. Sheeted and molded logs are placed into oiled bread pans and placed into proof box (National Manufacturing) and set to 110° F. and 80% relative humidity. Dough is proofed to a consistent height, as measured by a template which was 0.75 inches above the rim of the bread pan. Proof time is considered to be time for dough to touch the top of the template minus initial time in the proof box. Proofed dough is then placed into an oven and baked for 20 minutes at a temperature of 420° F. Internal temperature of the bread exiting the oven is 195° F.-200° F. Baked bread is cooled at room temperature on a wire rack for one hour to an internal temperature of between 95° F. and 100° F. After cooling, bread is sliced and packaged in plastic bags and sealed with twist ties. Packaged bread is stored at room temperature 70° F.-75° F. and visually inspected for mold appearance on a daily basis. Bread is considered as expired/failed upon first sign of mold.
Mixed dough is rested for 10 minutes on bench then scaled into two 520 gram dough pieces and rounded by hand. Rounded dough is rested 10 minutes then sheeted and molded into logs. Sheeted and molded logs are placed into oiled bread pans and placed into proof box (National Manufacturing) set to 110° F. and 80% relative humidity. Dough is proofed to a consistent height, as measured by a template which was 0.75 inches above the rim of the bread pan. Proof time is considered to be time for dough to touch the top of the template minus initial time in the proof box. Proofed dough is then placed into an oven and is baked for 20 minutes at a temperature of 420° F. The internal temperature of the bread exiting the oven is 195° F.-200° F. Baked bread is cooled at room temperature on a wire rack for one hour to an internal temperature of between 95° F. and 100° F. After cooling, the bread is sliced and packaged in plastic bags and sealed with twist ties.
Packaged bread is stored at room temperature 70° F.-75° F. Packaged bread is visually inspected for mold appearance on a daily basis. Bread is considered as expired/failed upon first sign of mold.

[2] = pH of baked bread; type: physicochemical

CCC(=O)[O-].CCC(=O)[O-].[Ca+2] [Calcium Propionate, calcium propionate]
Days to Mold ([1]; Table 4, 0.33%): 15 days
Days to Mold ([1]; Table 4, 0.5%): 17 days
Days to Mold ([1]; Table 6, white pan bread, 0.33%): 14 days
Days to Mold ([1]; Table 7, white pan bread, 0.33%): 14 days
Days to Mold ([1]; Table 8, 0.33% (flour basis)): 9 days
Days to Mold ([1]; Table 8, 0.50% (flour basis)): 12 days
Days to Mold ([1]; Table 8, 0.75% (flour basis)): 23 days
Days to Mold ([1]; Table 8, 1.00% (flour basis)): 32 days
Days to Mold ([1]; Table 9, White Pan Bread, 0.33%): 11 days
Days to Mold ([1]; Table 10, White Pan Bread, 0.33%): 15 days
Days to Mold ([1]; Table 10, 0.50%): 17 days
pH Bread ([2]; Table 4, 0.33%): 5.60
pH Bread ([2]; Table 4, 0.5%): 5.45
pH Bread ([2]; Table 6, 0.33%): 5.62
pH Bread ([2]; Table 7, 0.33%): 5.72
pH Bread ([2]; Table 8, 0.33% (flour basis)): 5.57
pH Bread ([2]; Table 8, 0.50% (flour basis)): 5.57
pH Bread ([2]; Table 8, 0.75% (flour basis)): 5.58
pH Bread ([2]; Table 8, 1.00% (flour basis)): 5.59
